These results are taken from article PMC11494886, “Discovery and design of molecular glue enhancers of CDK12–DDB1 interactions for targeted degradation of cyclin K” (RSC Chemical Biology, 2024).

One assay deals with HiBiT-tagged cyclin K. The experiment in a line: HiBiT cyclin K degradation assay (DC50, Dmax). In kind it is cell-based. As to conditions: HiBiT-CCNK KI A549 cells, 2 hours. As to the method:
Next, we utilized HiBiT technology (Promega) for quantitative analysis of cyclin K degrader activity. […] Importantly, knockout of CDK12 using CRISPR/Cas9 protected cyclin K from SR-4835-induced degradation (Fig. 1D). We verified the depletion of CDK12 in HEK-293T cells (Fig. S3, ESI ^†).
The HiBiT-CCNK KI A549 cells (Promega) were seeded in 384 well plate and treated with the test compounds for 2 hours in a dose dependent manner. Nano-Glo® HiBiT Lytic Detection System (Promega) composed of the Nano-Glo® HiBiT Lytic Substrate, Nano-Glo® HiBiT Lytic Buffer and LgBiT Protein was used as per the manufacturer's instructions. Briefly, a 2× Nano-Glo® HiBiT Lytic Detection Reagent mixture was prepared by adding 20 μL of Nano-Glo® HiBiT Lytic Substrate and 10 μL of LgBiT protein per every 1 mL of Nano-Glo® HiBiT Lytic Buffer. After incubating the cells with the 2× Nano-Glo® HiBiT Lytic Detection Reagent mixture, luminescence was measured. HiBiT tagged cyclin K present at any given concentration was measured by normalizing the luminescence signal at that concentration to the luminescence signal from the DMSO (control) cells. The concentration necessary to achieve a 50% reduction in cyclin K levels (DC50) and the maximum achievable reduction in cyclin K levels (Dmax) was computed from this assay.

A further assay relates to HEK-293T cells. The assay can be described thus: CellTiter-Glo viability assay, WT HEK-293T. In kind it is cell-based. The following applies: Homo sapiens, 72 hours, read-out: EC50 cell viability. An excerpt:
(§1) MDA-MB-231 (human triple-negative breast cancer cells) and HEK293T (human embryonic kidney cells) were purchased from the American type culture collection (ATCC) and maintained in Dulbecco's modified Eagle's medium (DMEM) (Gibco) supplemented with 10% (v/v) heat-inactivated fetal bovine serum (FBS) (Gibco) and penicillin/streptomycin (100 U mL^−1 each). HiBiT-CCNK KI A549 cells, purchased from Promega, were maintained in F12 medium supplemented with 10% (v/v) heat-inactivated fetal bovine serum (FBS) (Gibco) and penicillin/streptomycin (100 U mL^−1 each). DDB1-knockdown MDA-MB-231 and DDB1-knockdown HEK293T cell lines were maintained in the same media formulation as their corresponding wild-type cell lines. All cell lines were cultured at 37 °C in an incubator with CO2 levels maintained at 5%.
(§2) Cell viability was measured by Cell Titer Glo assay kit (Promega, USA). EC50 was determined from the nonlinear regression and a four-parameter algorithm on the GraphPad Prism software.

The subject of a further assay is HEK-293TDDB1-shRNA cells. The experiment in a line: CellTiter-Glo viability assay, HEK-293T DDB1-shRNA. In kind it is cell-based, human. As to conditions: 72 hours; for EC50: Homo sapiens, HEK-293T DDB1 shRNA, CellTiter-Glo, read-out: EC50 cell viability.
Text: (§3) For stable genetic knock-down of DDB1 in cells, predesigned and validated TRC2-pLKO-puro shRNA plasmids for DDB1 (TRCN0000082855 and TRCN0000082856), and a non-targeting shRNA plasmid (SHC001) were obtained from Millipore Sigma. All plasmids were purified using the Qiagen Maxiprep kit (Qiagen). FuGENE HD 6 transfection reagent (Promega) was used for transfection of plasmids and lentiviral gene/shRNA constructs. Mission lentiviral packaging mix (Millipore Sigma) was used to package lentiviral plasmids into lentiviral particles in HEK293T cells, as per manufacturer's protocols. The resultant virus was concentrated using Vivaspin 20 centrifugal concentrators (Sartorius). MDA-MB-231 and HEK293T cells were transduced with lentivirus. Stable knocked down DDB1 (shDDB1-231 and shDDB1-HEK293T) cells were generated after selection with the antibiotic puromycin, and genetic knockdown was confirmed by western blotting.
as §2
In general terms: In ATP-based viability assays light output follows the ATP content of the culture.

In another assay the test system is MDA-MB-231 cells. The experiment in a line: CellTiter-Glo viability assay, WT MDA-MB-231. In kind it is cell-based. The following applies: Homo sapiens; WT MDA-MB-231, 72 hours, CellTiter-Glo; read-out: EC50 cell viability.
Text: as §1, §2

For assay [1], the system named is MDA-MB-231DDB1-shRNA cells. The experiment in a line: CellTiter-Glo viability assay, MDA-MB-231 DDB1-shRNA. In kind it is cell-based, human. The following applies: for EC50: Homo sapiens, MDA-MB-231 DDB1 shRNA, 72 hours, CellTiter-Glo, read-out: EC50 cell viability.
Text: as §3, §2

In another assay the target is T1, Cdk12/CycK and DDB1ΔB (Homo sapiens, UniProt Q16531+Q9NYV4, DEL396-705).
T1 construct: the Cdk12 (714–1063)/CycK (1–267) complex and the DDB1ΔB protein; made in house; host or cells: Sf9 insect cells (MultiBacTurbo)
The experiment in a line: GST pulldown assay, recruitment of DDB1ΔB to Cdk12/CycK. In kind it is binding. The following applies: GST-Cdk12/GST-CycK bait, 5 μM compound, vs DMSO. As for the experimental part: The pulldown assay was utilized to identify drug-triggered protein–protein interactions involving the Cdk12 (714–1063)/CycK (1–267) complex and the DDB1ΔB protein. In this assay, purified GST-tagged Cdk12 construct complexed with GST-CycK was combined with equimolar amounts of His6-tagged DDB1ΔB (5 μM) in the presence of 5 μM of the respective small molecular compound in pulldown assay buffer (50 mM Hepes pH 7.4, 200 mM NaCl, 0.25 mM TCEP, 0.05% (v/v) Tween20), ensuring a 2% total DMSO concentration. Experimental controls included samples supplemented with 2% DMSO instead of compound as well as samples devoid of the GST-tagged Cdk12/CycK complex. Each sample was individually added to approximately 50 μL of pre-equilibrated glutathione agarose beads (Thermo Fisher Scientific). The bead suspensions were then subjected to a 2 h incubation period at room temperature with gentle agitation. After incubation, the beads were pelleted by centrifugation at 700 × g for 4 min, the supernatant was discarded, and the beads were washed three-times with 100 μL of pulldown assay buffer. Following the washing step, bound proteins were eluted from the beads with 50 μL of pulldown assay buffer supplemented with 10 mM GSH for 1 h at room temperature under rotation. Subsequently, the beads were again pelleted by centrifugation at 700 × g for 4 min and the resulting supernatants containing eluted protein fractions were mixed with 6 × SDS sample buffer at a 1 : 1 (v/v) ratio. The eluted protein samples were separated by SDS-PAGE and subjected to Coomassie brilliant blue staining for visualization and analysis.

Broadly, the EC50 is the concentration at which the effect is half-maximal.

T1 sequence (Q9NYV4 714-1063, stated change not applied): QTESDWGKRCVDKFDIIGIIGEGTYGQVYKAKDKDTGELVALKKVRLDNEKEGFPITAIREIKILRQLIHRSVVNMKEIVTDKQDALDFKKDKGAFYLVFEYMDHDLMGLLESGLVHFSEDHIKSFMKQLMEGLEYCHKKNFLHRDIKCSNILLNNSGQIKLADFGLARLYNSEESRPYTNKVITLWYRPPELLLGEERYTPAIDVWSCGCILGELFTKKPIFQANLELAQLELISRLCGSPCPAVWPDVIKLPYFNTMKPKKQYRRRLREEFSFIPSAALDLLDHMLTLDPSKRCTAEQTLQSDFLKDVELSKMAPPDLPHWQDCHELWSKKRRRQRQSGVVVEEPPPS
T1 sequence (O75909 1-267 partner limits assumed): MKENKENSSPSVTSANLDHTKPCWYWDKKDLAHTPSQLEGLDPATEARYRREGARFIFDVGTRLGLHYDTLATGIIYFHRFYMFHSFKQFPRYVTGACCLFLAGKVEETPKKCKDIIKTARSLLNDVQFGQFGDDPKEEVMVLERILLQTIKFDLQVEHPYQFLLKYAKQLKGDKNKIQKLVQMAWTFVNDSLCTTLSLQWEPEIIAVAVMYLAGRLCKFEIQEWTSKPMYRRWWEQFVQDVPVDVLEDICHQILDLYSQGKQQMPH
T1 sequence (Q16531 with tags, fused parts or gaps DEL396-705): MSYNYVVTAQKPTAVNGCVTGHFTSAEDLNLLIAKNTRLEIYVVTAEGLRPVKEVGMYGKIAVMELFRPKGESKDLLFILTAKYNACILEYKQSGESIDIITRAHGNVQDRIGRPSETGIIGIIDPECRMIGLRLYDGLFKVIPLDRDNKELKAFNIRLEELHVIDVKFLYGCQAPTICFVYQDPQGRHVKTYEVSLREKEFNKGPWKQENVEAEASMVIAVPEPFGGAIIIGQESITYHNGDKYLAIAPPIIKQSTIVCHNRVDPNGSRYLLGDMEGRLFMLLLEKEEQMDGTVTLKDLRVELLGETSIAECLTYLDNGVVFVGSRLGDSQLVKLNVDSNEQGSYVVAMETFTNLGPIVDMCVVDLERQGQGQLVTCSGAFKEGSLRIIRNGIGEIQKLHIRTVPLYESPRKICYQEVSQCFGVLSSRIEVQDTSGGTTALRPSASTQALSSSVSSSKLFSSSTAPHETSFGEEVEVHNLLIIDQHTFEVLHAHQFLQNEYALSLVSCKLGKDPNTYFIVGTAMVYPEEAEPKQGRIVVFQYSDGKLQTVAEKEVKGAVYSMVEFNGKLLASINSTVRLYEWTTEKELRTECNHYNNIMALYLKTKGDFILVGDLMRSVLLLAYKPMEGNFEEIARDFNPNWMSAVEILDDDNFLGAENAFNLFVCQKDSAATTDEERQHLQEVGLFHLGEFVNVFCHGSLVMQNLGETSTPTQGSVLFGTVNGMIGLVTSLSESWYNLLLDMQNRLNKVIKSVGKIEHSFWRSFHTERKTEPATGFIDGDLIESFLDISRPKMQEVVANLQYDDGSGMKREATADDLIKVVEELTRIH

For the compound `Cn1cc(-n2cnc3c(NCc4nc5cc(Cl)c(Cl)cc5[nH]4)nc(N4CCOCC4)nc32)cn1` [SR-4835], the “Dmax (maximum reduction in cyclin K levels)” value in the assay with HiBiT-tagged cyclin K (vs DMSO) was > 95%. The DC50 in the assay on HiBiT-tagged cyclin K (read-out: DC50 (concentration for 50% reduction in cyclin K levels)) is ~90 nM. The concentration giving a half-maximal response (EC50) was determined as 188 nM in the assay with HEK-293T cells, 2000 nM in the assay on HEK-293TDDB1-shRNA cells, 55 nM in the assay on MDA-MB-231 cells and 218 nM in assay [1]. Also, at Cdk12/CycK and DDB1ΔB, the “recruitment of DDB1ΔB in pulldown” value is reported as “enrichment of DDB1ΔB fractions”.
In the case of `CN(C)C/C=C/C(=O)Nc1ccc(C(=O)N2CCC[C@@H](Nc3ncc(Cl)c(-c4c[nH]c5ccccc45)n3)C2)cc1` [THZ531, reference compound], the “reduction in cyclin K levels” value with HiBiT-tagged cyclin K (dose-response) is on record as “no reduction in cyclin K levels”. In addition, the EC50 with HEK-293T cells was 128 nM; in the assay with HEK-293TDDB1-shRNA cells, 231 nM; in the assay with MDA-MB-231 cells, 72 nM; in assay [1] it was 65 nM. Further, the “fold change of EC50 (DDB1 shRNA vs WT)” value with HEK-293TDDB1-shRNA cells (HEK-293T DDB1 shRNA vs WT HEK-293T) is recorded as “ns”; in assay [1] (MDA-MB-231 DDB1 shRNA vs WT MDA-MB-231, 72 hours), 0.9. In addition, the “recruitment of DDB1ΔB in pulldown” value at Cdk12/CycK and DDB1ΔB was “incapable of recruiting the DDB1ΔB protein”.
